Experiments:
[1] = target: T1, human recombinant P-gp membrane fraction (Homo sapiens, UniProt P08183); test: P-gp-Glo assay, verapamil-stimulated P-gp ATPase activity; type: biochemical; details: for IC50: read-out: IC50, verapamil-stimulated P-glycoprotein ATPase activity; for mechanism of P-gp inhibition: with and without verapamil
T1 construct: purchased Promega
Procedure: P-gp Glo™ Assay System represents a bioluminescent assay for the detection of P-gp ATPase activity. […] The activity of P-gp is inversely proportional to the luciferase-generated luminescent signal of unmetabolized ATP. For the detection of P-gp inhibitory potential, the compounds (concentration range 12.5–100 µM) were tested for their capacity to inhibit verapamil-stimulated P-gp ATPase activity in a competitive mode.
Using ATP standard curve and linear regression, the average amount of ATP consumed in presence of each compound was calculated. Afterwards, the specific P-gp activity (consumed ATP) was plotted versus the concentrations of the test compound and IC50 values were determined (Table 6). By using one-way ANOVA analysis, the statistical differences between compounds were identified; the compounds with the most statistically significant inhibition capacity was K3, followed by K4 and K7.
The modulation of P-glycoprotein ATPase activity was performed according to the manufacturer’s guidelines[54] and previously published work[55]. […] The reduction of verapamil-stimulated ATPase activity by selenoesters can indicate them as P-gp ATPase inhibitors. The reaction was initiated with 10 µL of MgATP (5 mM) addition to the final 50 µL volume. After 1 h incubation at 37 °C, the ATPase reaction was stopped with 50 µL of ATP detection reagent and subsequently the plate was incubated for 20 min at room temperature. Thanks to the luciferase reaction, it was possible to detect the remaining non-metabolized ATP as the luminescent signal. By using ATP standards and linear regression, the relative luminescent values (RLU) were converted to ATP concentration per reaction; and the amount of consumed ATP by the compounds was calculated.

HOC spheroids = test: Cytotoxic activity against 3D models, CellTiter-Glo 3D; type: cell-based; details: Homo sapiens; 72 h old spheroids, 72 h incubation, n=4
Procedure: (§1) The ability of selenoesters to affect the formation of spheroids was described in the previous section. Subsequently, we have tested the cytotoxic potential of selenoesters in preformed 72 h old spheroids. Both sensitive and resistant mature breast and ovarian cells spheroids were incubated in the presence of selenoesters in a concentration range 1.6–100 µM. […] A safe concentration of selenoesters has been established based on the results of sensitization of drug-resistant 3D models.
(§2) Human ovarian and breast cancer cells (HOC, MCF-7, parental and resistant) were seeded in ultra-low attachment 96-well plates (Sigma-Aldrich) at a cell density of 0.5 × 10^5 cells/mL. After 3 days of spheroid formation, plates were carefully washed once with PBS and fresh DMEM medium (99 µL) was added. Using a binary compound dilution, the concentration range of the K3, K4, K7 compounds was prepared in new 96-well plates (0.16–10 mM). After 1 µL compound transfer, the final concentration range of compounds was 1.6–100 µM. The required volume of DMSO (1% V/V) was added to the positive control. After 72 h of incubation, 100 µL of CellTiter-Glo 3D Re-agent (Promega) was added to each well. Spheroid plates were incubated for 25 min at room temperature. Subsequently, the luminescent signal was recorded by detector (SpectraMax i3x Multi-Mode Microplate reader with MiniMax Imaging Cytometer, Molecular Devices).

HOC/ADR spheroids [2] = test: as above; type: cell-based; details: Homo sapiens; 72 h old spheroids, 72 h incubation, n=4
Procedure: as §1, §2

MCF-7 spheroids = test: as above; type: cell-based; details: Homo sapiens, MCF7; 72 h old spheroids, 72 h incubation, n=4
Procedure: as §1, §2

MCF-7/PAX spheroids = test: as above; type: cell-based; details: Homo sapiens, MCF7; 72 h old spheroids, 72 h incubation, n=4
Procedure: as §1, §2

HOC/ADR spheroids [3] = test: Sensitization of resistant 3D spheroids to Adriamycin; type: cell-based, human; details: Adriamycin IC50 / Adriamycin + selenoester IC50; K3 3 µM, K4 5 µM, K7 5 µM; 72 h
Procedure: In the previous section, the cytotoxic activity of selenoesters was determined against several 3D models of sensitive and resistant cell lines. Subsequently, the selenoesters were tested for their potential to sensitize the drug-resistant HOC/ADR and MCF-7/PAX spheroids. Mature 72 h old spheroids were incubated with the non-toxic concentration of selenoesters with Adriamycin or paclitaxel (concentration range 0.6–80 µM) for HOC/ADR or MCF-7/PAX, respectively (Table 8). After another 72 h incubation, the sensitization rate (fold change) was evaluated. […] The highest sensitization rate of ovarian spheroids (HOC/ADR) was induced by 5 µM K4, followed by 5 µM K7, and 3 µM K3.
To determine the sensitization potential of compounds, HOC/ADR and MCF-7/PAX were seeded into the ultra-low attachment 96-well plates (Sigma-Aldrich) at a cell density 0.5 × 10^5 cells/mL. After 3 days of spheroid formation, spheroids were carefully washed once with PBS and fresh DMEM medium (99 µL) containing the appropriate concentration of compounds K3, K4, K7 was added. Using a binary serial compound dilution, the concentration range of both cytostatics was prepared in the new 96-well plates (0.06–8 mM). After 1 µL transfer of cytostatics into the corresponding cell line, the final concentration range were 0.6–80 µM. The required volume of DMSO (1% V/V) was added to the positive control. After an incubation of 72 h, 100 µL of CellTiter-Glo 3D Reagent (Promega) was added to each well. Plates with spheroids were incubated for 25 min at room temperature. Afterwards, the luminescent signal was recorded.

T1 sequence (P08183 whole entry): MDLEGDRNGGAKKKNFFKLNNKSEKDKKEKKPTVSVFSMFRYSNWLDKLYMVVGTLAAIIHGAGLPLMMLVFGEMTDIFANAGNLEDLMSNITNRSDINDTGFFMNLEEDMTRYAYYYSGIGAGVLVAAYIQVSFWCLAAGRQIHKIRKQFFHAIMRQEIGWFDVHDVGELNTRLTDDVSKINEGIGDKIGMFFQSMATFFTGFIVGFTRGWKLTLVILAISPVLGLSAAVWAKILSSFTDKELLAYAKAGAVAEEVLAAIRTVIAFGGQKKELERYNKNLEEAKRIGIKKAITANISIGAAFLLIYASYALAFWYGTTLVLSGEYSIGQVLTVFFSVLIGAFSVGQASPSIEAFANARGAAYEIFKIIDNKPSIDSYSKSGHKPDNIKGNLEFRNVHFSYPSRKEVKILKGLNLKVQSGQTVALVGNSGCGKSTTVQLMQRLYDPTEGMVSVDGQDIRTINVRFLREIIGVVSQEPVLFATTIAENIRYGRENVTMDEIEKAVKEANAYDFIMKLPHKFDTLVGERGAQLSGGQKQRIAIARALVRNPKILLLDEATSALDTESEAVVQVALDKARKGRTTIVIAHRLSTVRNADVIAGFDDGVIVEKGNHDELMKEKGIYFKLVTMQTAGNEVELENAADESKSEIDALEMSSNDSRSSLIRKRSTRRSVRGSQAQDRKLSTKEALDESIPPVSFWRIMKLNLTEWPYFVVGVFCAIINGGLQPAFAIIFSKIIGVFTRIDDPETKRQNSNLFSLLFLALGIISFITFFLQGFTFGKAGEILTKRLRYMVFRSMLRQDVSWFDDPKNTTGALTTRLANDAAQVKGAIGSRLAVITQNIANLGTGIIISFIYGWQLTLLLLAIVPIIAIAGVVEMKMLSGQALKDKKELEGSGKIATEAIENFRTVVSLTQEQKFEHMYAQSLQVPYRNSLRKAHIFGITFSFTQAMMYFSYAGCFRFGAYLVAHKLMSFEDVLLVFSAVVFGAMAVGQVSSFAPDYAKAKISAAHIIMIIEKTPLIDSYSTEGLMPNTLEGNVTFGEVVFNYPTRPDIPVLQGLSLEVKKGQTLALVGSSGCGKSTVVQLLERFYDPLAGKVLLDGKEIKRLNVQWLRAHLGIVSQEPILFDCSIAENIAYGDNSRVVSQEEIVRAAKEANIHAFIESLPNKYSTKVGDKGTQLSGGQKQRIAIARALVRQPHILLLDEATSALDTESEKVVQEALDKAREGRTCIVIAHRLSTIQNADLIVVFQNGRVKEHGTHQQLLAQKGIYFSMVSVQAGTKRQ

Compound	inhibition of verapamil-stimulated P-gp ATPase activity (luminescent signal) ([1]; K3 50 µM versus Na3VO4 100 µM)	IC50 [1] [µM]	mechanism of P-gp inhibition [1]	IC50 (HOC spheroids) [nM]	IC50 (HOC/ADR spheroids [2]) [µM]	IC50 (MCF-7 spheroids) [nM]	IC50 (MCF-7/PAX spheroids) [µM]	HOC/ADR Fold change (3D) (HOC/ADR spheroids [3])
CC(=O)C[Se]C(=O)c1ccc(Br)cc1 [K3]	more effectively inhibited than sodium orthovanadate	11.7 ± 1	competitively inhibits efflux of another substrate	1700 ± 100	3.9 ± 0.2	2500 ± 200	4 ± 0.1	(1.2 ± 0.2)×
CC(=O)C[Se]C(=O)c1ccccc1C(F)(F)F [K4]		23 ± 0.2		3100 ± 100	10.5 ± 0.5	2100	4.8 ± 0.3	(2.3 ± 0.1)×
CC(=O)C[Se]C(=O)c1ccc(C(C)(C)C)cc1 [K7]		25.7 ± 0.6	non-competitive P-gp inhibitor	2800 ± 100	10.1 ± 0.5	2200 ± 300	7.5 ± 0.2	(1.6 ± 0.1)×

Source: paper PMC9023544, “Ketone-selenoesters as potential anticancer and multidrug resistance modulation agents in 2D and 3D ovarian and breast cancer in vitro models” (Scientific Reports, 2022)
